The target of one assay is T1, ADAR (Homo sapiens, UniProt P55265).
T1 sequence (P55265 1-1226): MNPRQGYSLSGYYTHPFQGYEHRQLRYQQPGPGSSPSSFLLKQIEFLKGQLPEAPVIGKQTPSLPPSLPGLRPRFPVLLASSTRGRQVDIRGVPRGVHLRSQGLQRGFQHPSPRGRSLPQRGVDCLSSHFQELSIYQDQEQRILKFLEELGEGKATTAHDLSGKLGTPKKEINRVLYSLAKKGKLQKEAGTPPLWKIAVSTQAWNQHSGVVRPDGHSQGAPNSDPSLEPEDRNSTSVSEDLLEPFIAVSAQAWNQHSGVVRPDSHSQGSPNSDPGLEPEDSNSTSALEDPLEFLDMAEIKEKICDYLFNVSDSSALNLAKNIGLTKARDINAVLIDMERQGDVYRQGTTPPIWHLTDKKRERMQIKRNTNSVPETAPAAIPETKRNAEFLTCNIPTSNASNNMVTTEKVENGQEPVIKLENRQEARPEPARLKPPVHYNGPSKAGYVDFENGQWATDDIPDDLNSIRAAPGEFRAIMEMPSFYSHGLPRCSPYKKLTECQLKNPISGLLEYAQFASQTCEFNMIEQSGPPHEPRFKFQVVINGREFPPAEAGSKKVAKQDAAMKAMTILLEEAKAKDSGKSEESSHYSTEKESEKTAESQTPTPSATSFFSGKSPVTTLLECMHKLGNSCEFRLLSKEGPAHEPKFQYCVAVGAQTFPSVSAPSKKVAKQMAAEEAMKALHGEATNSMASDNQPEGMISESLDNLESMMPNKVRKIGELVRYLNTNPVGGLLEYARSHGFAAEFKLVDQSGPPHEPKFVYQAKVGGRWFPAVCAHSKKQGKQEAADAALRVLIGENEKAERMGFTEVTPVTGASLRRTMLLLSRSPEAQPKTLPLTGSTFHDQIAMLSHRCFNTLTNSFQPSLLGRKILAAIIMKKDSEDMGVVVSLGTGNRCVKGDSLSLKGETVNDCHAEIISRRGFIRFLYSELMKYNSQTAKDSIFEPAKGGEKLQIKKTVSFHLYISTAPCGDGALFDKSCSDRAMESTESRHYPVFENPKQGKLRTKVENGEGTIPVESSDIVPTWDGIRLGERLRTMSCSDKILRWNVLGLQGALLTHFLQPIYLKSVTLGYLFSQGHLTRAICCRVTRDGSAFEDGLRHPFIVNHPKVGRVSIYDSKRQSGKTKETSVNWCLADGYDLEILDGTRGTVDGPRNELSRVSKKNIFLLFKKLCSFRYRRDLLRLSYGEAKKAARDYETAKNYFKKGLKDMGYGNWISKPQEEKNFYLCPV
As to conditions: cited from earlier work.

The test system of the next assay is HeLa-Nluc-edit cells. As to the kind of experiment: Firefly luciferase (FFL) activity in HeLa-Nluc-edit reporter cells (viability/apoptosis). The class given is cell-based, human. Particulars: FIG. 24C. Here is the method:
A HeLa cell line (telomerase positive) permanently transformed with a dual luciferase reporter system (HeLa-Nluc-edit) as described by Fritzell, K. et al (Sensitive ADAR editing reporter in cancer cells enables high-throughput screening of small molecule libraries. Nucleic acids research 47, e22, doi:10.1093/nar/gky1228 (2019), which is incorporated herein by reference) were seeded at a density of 800 cells per well into 384 white plates (PerkinElmer, CulturPlate384, #6007689) in 20 μl of Opti-MEM without phenol red (Thermo Fisher Scientific #11058021) using a multidrop dispenser (Thermo Fisher Scientific) and incubated overnight at 37-C, 5% CO2. The cells were then treated with test compounds (Maybridge HitFinder Diversity Set library) for 72 h prior to luminescence signal detection. Briefly, 10 μl of Steadylite Plus FFL assay system reagents were added and firefly luminescence signal was measured within 10-20 min after the addition using a multiplate reader at 1 s integration time. Firefly luciferase activity was calculated for each well and results for each plate were normalized to a negative (0.1% DMSO) and positive (Doxorubicin 10 microM) control. […]
For the second screen, 10 μl of Steadylite Plus FFL assay system reagents were added and firefly luminescence signal was measured within 10-20 min after the addition using a multiplate reader at 1 s integration time. […]

For `Nc1ncnc2c1nnn2[C@@H]1O[C@H](CO)[C@@H](O)[C@H]1O` [8-azaadenosine], on ADAR, the ADAR inhibition result is listed as “not ADAR inhibitors”.
Take `COc1cccc2c1C(=O)c1c(O)c3c(c(O)c1C2=O)C[C@@](O)(C(=O)CO)C[C@@H]3O[C@H]1C[C@H](N)[C@H](O)[C@H](C)O1` [Doxorubicin]: in the assay with HeLa-Nluc-edit cells, the “apoptosis detected by reduction of the FFL activity” value was “induces acute apoptosis”.
Take `Nc1ncnc2c1nc(Cl)n2[C@@H]1O[C@H](CO)[C@@H](O)[C@H]1O` [8-chloroadenosine]: the ADAR inhibition result on ADAR is on record as “not ADAR inhibitors”.

The values above are taken from patent publication US20250066864A1, “METHODS FOR IDENTIFYING ADAR1 INHIBITORS, AND COMPOSITIONS AND METHODS OF USE IN TREATING CANCER” (The Wistar Institute of Anatomy and Biology, priority 2021, published 2025).
